# Results from US9957274B2, “Indane inhibitors of EED and methods of their use” (AbbVie Inc., priority 2016, dated 2018).
# Experiments:
# [1] = biological target: EED (Homo sapiens, UniProt O75530); assay: EED TR-FRET Binding Assay (modified LanthaScreen competition assay)
# Experimental: Compounds were tested in a modified LanthaScreen competition assay.
# The following buffer was used to set up the binding reactions: 20 mM Tris-HCl pH 7.5, 200 mM NaCl, 0.01% Tween-20, 10 uM DTT (dithiothreitol), and 0.05% BSA (bovine serum albumin), with the DTT and BSA added fresh prior to initiating the binding assay. […] The reactions were then incubated for 1 hour at 25° C. in a humidified chamber prior to detection on the Perkin Elmer Envision plate reader using a Lanthascreen TR-FRET protocol.
# [2] = tested on: Pfeiffer cells; assay: CTG cell viability assay (CellTiter-Glo); type: cell-based; details: Homo sapiens, 240 h; Pfeiffer cells, 10 days with compound, CellTiter-Glo; read-out: Cell Proliferation IC50
# Experimental: 1,000 cells were plated into each well of 96-well Corning CellBing cell culture plates and incubated overnight at 37° C. in a humidified CO2 incubator. […] The cell culture plates were then incubated for 10 more days. CTG cell viability assay was performed on the cell culture samples by using CellTiter-Glo® Luminescent Cell Viability Assay Kit (Promega).
# EED, sequence (O75530 whole entry): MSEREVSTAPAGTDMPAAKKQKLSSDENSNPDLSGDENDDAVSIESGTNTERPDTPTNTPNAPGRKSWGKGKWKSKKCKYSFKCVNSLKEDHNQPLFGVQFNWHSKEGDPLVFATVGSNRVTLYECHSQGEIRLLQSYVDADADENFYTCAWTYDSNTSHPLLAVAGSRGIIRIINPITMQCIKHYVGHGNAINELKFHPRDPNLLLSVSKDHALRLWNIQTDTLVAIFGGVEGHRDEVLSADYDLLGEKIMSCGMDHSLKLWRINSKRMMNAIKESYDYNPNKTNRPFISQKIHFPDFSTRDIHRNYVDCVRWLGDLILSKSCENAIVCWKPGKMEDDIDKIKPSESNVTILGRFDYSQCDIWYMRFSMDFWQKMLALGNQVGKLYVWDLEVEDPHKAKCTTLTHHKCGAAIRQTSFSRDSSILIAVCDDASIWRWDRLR
IC50 [1] [µM],Structure (SMILES),IC50 [2] [µM]
0.00259,"CN(C)C1CN(C2CCc3cccc(F)c32)CC1c1cn(C)c2cc(C(=O)N3CCC(O)C3)ccc12 (racemic) [Example 111, rac-{3-[(3S,4R)-4-(dimethylamino)-1-(7-fluoro-2,3-dihydro-1H-inden-1-yl)pyrrolidin-3-yl]-1-methyl-1H-indol-6-yl}[(35)-3-hydroxypyrrolidin-1-yl]methanone]",0.171
0.00245,"CN(C)[C@H]1CN(C2CCc3cccc(F)c32)C[C@@H]1c1cn(C)c2c(C(=O)O)cccc12 (stereo partly drawn) [Example 79, 3-[(3S,4R)-4-(dimethylamino)-1-(7-fluoro-2,3-dihydro-1H-inden-1-yl)pyrrolidin-3-yl]-1-methyl-1H-indole-7-carboxylic acid]",1.02
0.00944,"CN(C)[C@H]1CN(C2CCc3cccc(F)c32)C[C@@H]1c1cn(C)c2c(C(=O)O)cccc12 (mixture of isomers) [Example 80, rac-3-[(3S,4R)-4-(dimethylamino)-1-(7-fluoro-2,3-dihydro-1H-inden-1-yl)pyrrolidin-3-yl]-1-methyl-1H-indole-7-carboxylic acid]",1.52
0.0027,"CN(C)[C@H]1CN(C2CCc3cc(F)cc(F)c32)C[C@@H]1c1cn(C)c2ccccc12 (mixture of isomers) [Example 95, rac-(3R,4S)-1-(5,7-difluoro-2,3-dihydro-1H-inden-1-yl)-N,N-dimethyl-4-(1-methyl-1H-indol-3-yl)pyrrolidin-3-amine]",1.72
0.00458,"CN(C)[C@H]1CN(C2CCc3cccc(F)c32)C[C@@H]1C1CCN(c2ccccc2)CC1 (mixture of isomers) [Example 146, rac-(3R,4S)-1-(7-fluoro-2,3-dihydro-1H-inden-1-yl)-N,N-dimethyl-4-(1-phenylpiperidin-4-yl)pyrrolidin-3-amine]",2.9
0.0049,"CN(C)[C@H]1CN(C2CCc3cccc(F)c32)C[C@@H]1c1cn(C)c2cc(Br)ccc12 (mixture of isomers) [Example 94, rac-(3R,4S)-4-(6-bromo-1-methyl-1H-indol-3-yl)-1-(7-fluoro-2,3-dihydro-1H-inden-1-yl)-N,N-dimethylpyrrolidin-3-amine]",
0.0982,"CN(C)[C@@H]1CN(C2CCc3cccc(F)c32)C[C@H]1c1cn(C)c2c(C(=O)O)cccc12 (stereo partly drawn) [Example 81, 3-[(3R,4S)-4-(dimethylamino)-1-(7-fluoro-2,3-dihydro-1H-inden-1-yl)pyrrolidin-3-yl]-1-methyl-1H-indole-7-carboxylic acid]",
0.119,"CN(C)[C@H]1CN([C@H]2CCc3cccc(F)c32)C[C@@H]1c1cn(C)c2cccnc12 (mixture of isomers) [Example 138, rac-(3R,4S)-1-[(1S)-7-fluoro-2,3-dihydro-1H-inden-1-yl]-N,N-dimethyl-4-(1-methyl-1H-pyrrolo[3,2-b]pyridin-3-yl)pyrrolidin-3-amine]",
0.0194,"CN(C)[C@H]1CN([C@@H]2CCc3cccc(F)c32)C[C@@H]1c1cn(C)c2cccnc12 (mixture of isomers) [Example 143, rac-(3R,4S)-1-[(1R)-7-fluoro-2,3-dihydro-1H-inden-1-yl]-N,N-dimethyl-4-(1-methyl-1H-pyrrolo[3,2-b]pyridin-3-yl)pyrrolidin-3-amine]",
0.00379,"CC(=O)N1CCN(c2ccc3c([C@H]4CN(C5CCc6cccc(F)c65)C[C@@H]4N(C)C)cn(C)c3c2)CC1 (mixture of isomers) [Example 121, rac-1-(4-{3-[(3S,4R)-4-(dimethylamino)-1-(7-fluoro-2,3-dihydro-1H-inden-1-yl)pyrrolidin-3-yl]-1-methyl-1H-indol-6-yl}piperazin-1-yl)ethan-1-one]",

# Second part, the compound before the results:
Structure (SMILES),IC50 [1] [µM],IC50 [2] [µM]
"CN(C)[C@@H]1CN(C2CCc3cccc(F)c32)C[C@H]1c1ccc(N2CCNCC2)cc1 (mixture of isomers) [Example 41, rac-(3S,4R)-1-(7-fluoro-2,3-dihydro-1H-inden-1-yl)-N,N-dimethyl-4-[4-(piperazin-1-yl)phenyl]pyrrolidin-3-amine]",0.00199,0.188
"Cc1coc(-c2ccc([C@@H]3CN(C4CCc5cccc(F)c54)C[C@H]3N(C)C)cc2)n1 (mixture of isomers) [Example 69, rac-(3S,4R)-1-(7-fluoro-2,3-dihydro-1H-inden-1-yl)-N,N-dimethyl-4-[4-(4-methyl-1,3-oxazol-2-yl)phenyl]pyrrolidin-3-amine]",0.00389,
"CN(C)[C@@H]1CN([C@H]2CC(O)c3cccc(F)c32)C[C@H]1c1ccc(S(C)(=O)=O)cc1 (stereo partly drawn) [Example 33, (3S)-3-{(3S,4R)-3-(dimethylamino)-4-[4-(methanesulfonyl)phenyl]pyrrolidin-1-yl}-4-fluoro-2,3-dihydro-1H-inden-1-ol]",> 50,
"CN1CCN(C(=O)c2ccc([C@H]3CN(C4CCc5cccc(F)c54)C[C@@H]3N(C)C)cc2)CC1=O (mixture of isomers) [Example 51, rac-4-{4-[(3S,4R)-4-(dimethylamino)-1-(7-fluoro-2,3-dihydro-1H-inden-1-yl)pyrrolidin-3-yl]benzoyl}-1-methylpiperazin-2-one]",0.0124,
"CCS(=O)(=O)N1CCN(C(=O)c2ccc([C@H]3CN(C4CCc5cccc(F)c54)C[C@@H]3N(C)C)cc2)CC1 (mixture of isomers) [Example 57, rac-{4-[(3S,4R)-4-(dimethylamino)-1-(7-fluoro-2,3-dihydro-1H-inden-1-yl)pyrrolidin-3-yl]phenyl}[4-(ethanesulfonyl)piperazin-1-yl]methanone]",0.0123,
"CN(C)[C@H]1CN([C@H]2C[C@H](O)c3cccc(F)c32)C[C@@H]1c1ccc(S(C)(=O)=O)cc1 (mixture of isomers) [Example 18, rac-(1S,3S)-3-{(3R,4S)-3-(dimethylamino)-4-[4-(methanesulfonyl)phenyl]pyrrolidin-1-yl}-4-fluoro-2,3-dihydro-1H-inden-1-ol]",0.0162,
"CC(=O)N1CCN(c2ccc([C@@H]3CN([C@@H]4CCc5cccc(F)c54)C[C@H]3N(C)C)cc2)CC1 [Example 48, 1-[4-(4-{(3R,4S)-4-(dimethylamino)-1-[(1R)-7-fluoro-2,3-dihydro-1H-inden-1-yl]pyrrolidin-3-yl}phenyl)piperazin-1-yl]ethan-1-one]",0.018,
"CN(C)[C@H]1CN(C2CCc3cccc(F)c32)C[C@@H]1c1ccc(C(=O)N2CCN(S(C)(=O)=O)CC2)cc1 (mixture of isomers) [Example 53, rac-{4-[(3S,4R)-4-(dimethylamino)-1-(7-fluoro-2,3-dihydro-1H-inden-1-yl)pyrrolidin-3-yl]phenyl}[4-(methanesulfonyl)piperazin-1-yl]methanone]",0.0123,
"COC(=O)c1ccc([C@H]2CN(C3CCc4cccc(Cl)c43)C[C@@H]2N(C)C)cc1 (mixture of isomers) [Example 21, rac-methyl 4-[(3S,4R)-1-(7-chloro-2,3-dihydro-1H-inden-1-yl)-4-(dimethylamino)pyrrolidin-3-yl]benzoate]",0.0707,
"CC(=O)N1CCN(C(=O)c2ccc([C@H]3CN(C4CCc5cccc(F)c54)C[C@@H]3N(C)C)cc2)CC1 (mixture of isomers) [Example 55, rac-1-(4-{4-[(3S,4R)-4-(dimethylamino)-1-(7-fluoro-2,3-dihydro-1H-inden-1-yl)pyrrolidin-3-yl]benzoyl}piperazin-1-yl)ethan-1-one]",0.0132,
"CC(=O)N1CCN(c2ccc([C@H]3CN(C4CCc5ccccc54)C[C@@H]3N(C)C)cc2)CC1 (stereo partly drawn) [Example 42, 1-(4-{4-[(3S,4R)-1-(2,3-dihydro-1H-inden-1-yl)-4-(dimethylamino)pyrrolidin-3-yl]phenyl}piperazin-1-yl)ethan-1-one]",> 50,
